In US7060677B1, “Antimicrobial activity of the first cationic cluster of human lactoferrin” (priority 1999, dated 2006):
Peptide text beside a SMILES is read from it.

Legend:
[1] = Pharmacology of 99mTc-labeled hLF and peptides by scintigraphy in infected mice
Method: Lactoferrins and related peptides were labeled with ^99mTechnetium (^99mTc) as described (22, 23). Briefly, 10 μl of a peptide solution (1 mg/ml of HAc) was added to 2 μl of an aseptic solution of 0.5 mg of stannous pyrophosphate/ml (Dept. of Clinical Pharmacy and Toxicology. Leiden University Medical Center (LUMC). Leiden. The Netherlands). Immediately thereafter, 4 μl of a solution of 10 mg of KBH4 (crystalline. Sigma) per ml of 0.1 M NaOH was added. After addition of 0.1 ml of ^99mTc-sodium pertechnetate solution (200 MBq/ml. Mallinckrodt Medical BV, Petten, The Netherlands), the mixture was gently stirred at ambient temperature for 30 min and then was ready for use. Quality control of the labeling was performed by RP-HPLC analysis using a Sep-Pak C18 cartridge (Waters, Milford, Mass.) in 20 ml of 0.01 M HAc. After rinsing with 20 ml of 0.01 M HAc, proteins and peptides were eluted with 2 ml of methanol (Sigma).
The mice were placed in supine position on a planar gamma camera (Toshiba GCA 7100/UI. Tokyo, Japan) with both hind legs spread out and fixed with surgical tape. Continuous whole body acquisitions of the mice of each 60 s during the first hour after injection of the tracer were made with the gamma camera, equipped with a low-energy general purpose parallel-hole collimator. […] The energy peak was set at 140 keV with a window of 20%.
(§1) On the scintigrams, anatomically adjusted regions of interest (ROI) were drawn over the various organs and both thighs providing data about clearance of ^99mTc-peptides and accumulation at the site of infection. […] The amount of radioactivity in the heart was corrected for decay and expressed as a percentage of injected dose (% ID).

bacterial infection = experiment: Imaging microbial infections with 99mTc-labeled hLF and peptides; details: as described in Example VI
From the text: The mice were placed in supine position on a planar gamma camera (Toshiba GCA 7100/UI. Tokyo, Japan) with both hind legs spread out and fixed with surgical tape. Continuous whole body acquisitions of the mice of each 60 s during the first hour after injection of the tracer were made with the gamma camera, equipped with a low-energy general purpose parallel-hole collimator. The camera was connected to a computer (GMS 5500 UI, Toshiba) and high-resolution images of the animals were stored as a 256×256 matrix. The energy peak was set at 140 keV with a window of 20%.
as §1

[2] = tested on: the various bacteria (L. monocytogenes, antibiotic resistant S. aureus, K. pneumoniae, E. coli); experiment: Assay for antibacterial activity, statements on the various bacteria together; type: cell-based; details: FIGS. 2A–2D: 7 μM peptide, 1 h at 37° C., NaPB-TSB
Method: Listeria monocytogenes strain EGD. Klebsiella pneumoniae (43816), and Escherichia coli O54 were purchased from the American Type Culture Collection (Rockville, Md.). Antibiotic resistant S. aureus, K. pneumoniae and E. coli were cultured overnight in nutrient broth (Oxoid, Basingstoke, UK) at 37° C., diluted in tryptase soya broth (TSB, Oxoid) and cultured for an additional 2 h in a shaking waterbath at 37° C. L. monocytogenes was cultured overnight in brain heart infusion broth (BHI, Oxoid) at 37° C. diluted and cultured for an additional 2 h in a shaking waterbath at 37° C.
In short, bacteria were washed with phosphate-buffered saline (PBS) (pH 7.4) and diluted to a concentration of approximately 2×10^6 CFU/ml of phosphate-buffered saline (pH 6.0) supplemented with 0.1% (v/v) Tween-20 (hereafter designated as PBS-Tw). […] At various time intervals (range 0–4 h) after incubation at 37° C. the number of viable bacteria was determined microbiologically. As negative controls, bovine serum albumin (BSA; Sigma) or no peptide were included.

With `CSCC[C@H](NC(=O)[C@H](CC(N)=O)NC(=O)[C@H](CCCNC(=N)N)NC(=O)[C@H](CCC(N)=O)NC(=O)[C@H](Cc1c[nH]c2ccccc12)NC(=O)[C@H](CCC(N)=O)NC(=O)[C@@H](N)Cc1ccccc1)C(=O)N[C@@H](CCCNC(=N)N)C(=O)N[C@@H](CCCCN)C(=O)N[C@H](C(=O)N[C@@H](CCCNC(=N)N)C(=O)O)C(C)C` [hLF(21–31), reference compound] (H-FQWQRNMRKVR-OH; N-terminus and C-terminus assumed) the “mean t1/2 of removal from the circulation” value (from here on “mean t1/2 of removal”) ([1]; Swiss, mouse, in vivo) was about 2 min.
In the case of `CC(C)[C@H](NC(=O)[C@H](CO)NC(=O)[C@H](CCCNC(=N)N)NC(=O)[C@H](CCCNC(=N)N)NC(=O)[C@@H](N)CCCNC(=N)N)C(=O)N[C@@H](CCC(N)=O)C(=O)N[C@@H](Cc1c[nH]c2ccccc12)C(=O)N[C@@H](CS)C(=O)N[C@@H](C)C(=O)O` [hLF(3–11)] (H-RRRSVQWCA-OH; N-terminus and C-terminus assumed), the “Accumulation at the site of infection (in words)” value (shortened to “Accumulation at the site”) (bacterial infection) was “rapidly accumulate at the site of infection”.
For `CC(C)[C@H](NC(=O)[C@H](CO)NC(=O)[C@H](CCCNC(=N)N)NC(=O)[C@H](CCCNC(=N)N)NC(=O)[C@H](CCCNC(=N)N)NC(=O)[C@@H](N)CCCNC(=N)N)C(=O)N[C@@H](CCC(N)=O)C(=O)N[C@@H](Cc1c[nH]c2ccccc12)C(=O)N[C@@H](CS)C(=O)N[C@@H](C)C(=O)O` [hLF(2–11)] (H-RRRRSVQWCA-OH; N-terminus and C-terminus assumed), the “Accumulation at the site” value (bacterial infection) was “rapidly accumulate at the site of infection”.
For `CC(C)[C@H](NC(=O)[C@H](CO)NC(=O)[C@H](CCCNC(=N)N)NC(=O)[C@H](CCCNC(=N)N)NC(=O)[C@H](CCCNC(=N)N)NC(=O)[C@H](CCCNC(=N)N)NC(=O)CN)C(=O)N[C@@H](CCC(N)=O)C(=O)N[C@@H](Cc1c[nH]c2ccccc12)C(=O)N[C@@H](CS)C(=O)N[C@@H](C)C(=O)O` [hLF(1–11)] (H-GRRRRSVQWCA-OH; N-terminus and C-terminus assumed), the “Accumulation at the site” value (bacterial infection) was “rapidly accumulate at the site of infection” and the “mean t1/2 of removal” value ([1]; 99mTc-labeled, S. aureus infected mice, n=3, radioactivity over the heart in first hour) was about 9 min.
For “hLF(5–11): synthetic fragment of hLF(1–11): residues 5–11 of hLF (SVQWCAV; UniProt P02788 24-30, looked up, fragment)”, the “Bactericidal activity of synthetic peptides against the various bacteria (in words)” value [2] was “ineffective”.
For “hLF(6–11): synthetic fragment of hLF(1–11): residues 6–11 of hLF (VQWCAV; UniProt P02788 25-30, looked up, fragment)”, the “Bactericidal activity of synthetic peptides against the various bacteria (in words)” value [2] was “ineffective”.
With `CC(C)[C@H](NC(=O)[C@H](CO)NC(=O)[C@H](CCCNC(=N)N)NC(=O)[C@@H](N)CCCNC(=N)N)C(=O)N[C@@H](CCC(N)=O)C(=O)N[C@@H](Cc1c[nH]c2ccccc12)C(=O)N[C@@H](CS)C(=O)N[C@@H](C)C(=O)O` [hLF(4–11)] (H-RRSVQWCA-OH; N-terminus and C-terminus assumed) the “mean t1/2 of removal” value ([1]; Swiss, mouse, in vivo) was “approximately 1 min”.
